Experimental data: ChEMBL document CHEMBL4808200, “Identification of a Series of N-Methylpyridine-2-carboxamides as Potent and Selective Inhibitors of the Second Bromodomain (BD2) of the Bromo and Extra Terminal Domain (BET) Proteins” (J Med Chem, 2021)
Converted amounts (≈) assume the structure as drawn.

Tests used:
[1] = Solubility of the compound in pH 6.5 FaSSIF at […] measured after 16 hrs by HPLC analysis; assay type: physicochemical
[2] = Permeability of the compound at pH 7.4 by artificial membrane permeability assay; assay type: ADME; details: PAMPA, read-out: permeability
[3] = Intrinsic clearance in Wistar Han rat cryopreserved pooled hepatocytes at 0.5 uM measured up to 60 mins by LC-MS/MS analysis; assay type: ADME, tissue-based, Hepatocyte; details: 1 h
[4] = Intrinsic clearance in Beagle dog cryopreserved pooled hepatocytes at 0.5 uM measured up to 120 mins by LC-MS/MS analysis; assay type: ADME, tissue-based, Canis lupus familiaris, Hepatocyte; details: 2 h
[5] = Intrinsic clearance in human cryopreserved pooled hepatocytes at 0.5 uM measured up to 120 mins by LC-MS/MS analysis; assay type: ADME, tissue-based, Hepatocyte; details: 2 h
[6] = Clearance in Wistar Han rat at 1 mg/kg, iv administered as 1 hr infusion or 3 mg/kg, po administered via gavage by LC-MS/MS analysis; assay type: ADME, organism-based; details: in vivo
[7] = Clearance in Beagle dog at 0.5 mg/kg, iv administered as 1 hr infusion on day 1 and day 7 to achieve a target dose of 1 mg/kg by LC-MS/MS analysis; assay type: ADME, organism-based, Canis lupus familiaris; details: in vivo, dose 0.5-1 mg/kg, time 7 day
[8] = Volume of distribution at steady state in Wistar Han rat at 1 mg/kg, iv administered as 1 hr infusion or 3 mg/kg, po administered via gavage by LC-MS/MS analysis; assay type: ADME, organism-based; details: in vivo, read-out: Vdss
[9] = Volume of distribution at steady state in Beagle dog at 0.5 mg/kg, iv administered as 1 hr infusion on day 1 and day 7 to achieve a target dose of 1 mg/kg by LC-MS/MS analysis; assay type: ADME, organism-based, Canis lupus familiaris; details: in vivo, dose 0.5-1 mg/kg, time 7 day, read-out: Vdss
[10] = Oral bioavailability in Wistar Han rat at 3 mg/kg administered via gavage by LC-MS/MS analysis; assay type: ADME, organism-based; details: in vivo
[11] = Oral bioavailability in Beagle dog; assay type: ADME, organism-based, Canis lupus familiaris; details: in vivo
[12] = Unbound clearance in Wistar Han rat at 1 mg/kg, iv administered as 1 hr infusion or 3 mg/kg, po administered via gavage by LC-MS/MS analysis; assay type: ADME, organism-based; details: in vivo
[13] = Unbound clearance in Beagle dog at 0.5 mg/kg, iv administered as 1 hr infusion on day 1 and day 7 to achieve a target dose of 1 mg/kg by LC-MS/MS analysis; assay type: ADME, organism-based, Canis lupus familiaris; details: in vivo, 168 h, dose 0.5-1 mg/kg, time 7 day
[14] = Half life in Wistar Han rat at 1 mg/kg, iv administered as 1 hr infusion or 3 mg/kg, po administered via gavage by LC-MS/MS analysis; assay type: ADME, organism-based; details: in vivo
[15] = Half life in Beagle dog at 0.5 mg/kg, iv administered as 1 hr infusion on day 1 and day 7 to achieve a target dose of 1 mg/kg by LC-MS/MS analysis; assay type: ADME, organism-based, Canis lupus familiaris; details: in vivo, dose 0.5-1 mg/kg, time 7 day
[16] = Clearance in Beagle dog at 0.5 mg/kg, iv administered as 1 hr infusion on day 1 and day 7 to achieve a target dose of 1 mg/kg by LC-MS/MS analysis relative to liver blood flow; assay type: ADME, organism-based, Canis lupus familiaris; details: in vivo, 168 h, dose 0.5-1 mg/kg, time 7 day
[17] = physchem; details: buffer, pH 7.4

| Compound | solubility at 16 h [1] [µg/mL] | Papp [2] [×10⁻⁶ cm/s] | CLH [3] [mL/min/g] | CLH [4] [mL/min/g] | CLH [5] [mL/min/g] | clearance [6] [mL/min/kg] | clearance [7] [mL/min/kg] | Vd [8] [L/kg] | Vd [9] [L/kg] | bioavailability [10] [%] | bioavailability [11] [%] | CL free [12] [mL/min/kg] | CL free [13] [mL/min/kg] | half-life [14] [min] | half-life [15] [min] | QH [16] [%] | chromatographic logD [17] |
| --- | --- | --- | --- | --- | --- | --- | --- | --- | --- | --- | --- | --- | --- | --- | --- | --- | --- |
| CNC(=O)c1cc(C(=O)N[C@H]2[C@@H]3COC[C@@H]32)cc(Cc2ccccc2)n1 | 112 (≈ 319 µM) | 21.5 | 1.4 | 0.76 | < 0.45 | 22 | 43 | 1.7 | 1.4 | 62 | 10 | 168 | 122 | 18 | 24 | 80 | 3.5 |
| CNC(=O)c1cc(C(=O)N[C@H]2C[C@@H]2C)cc([C@@H](O)c2ccccc2)n1 | > 1000 | 18.3 | < 0.8 | 0.81 | 0.8 | 29 | 32 | 2.2 | 2.1 | 34 | 35 | 96 | 102 | 120 | 36 |  | 3.2 |
| CNC(=O)c1cc(C(=O)N[C@H]2[C@@H]3COC[C@@H]32)cc(C(OC)c2ccccc2)n1 (some centres undefined) | 575 (≈ 1510 µM) | 14.5 | 1.27 | < 0.65 | < 0.45 | 52 | 9.4 | 2.1 | 0.9 | 17 | 65 | 142 | 23 | 90 | 72 |  | 3.4 |
